Results taken from US20230338340A1, “Methods of Treating Cystic Fibrosis” (The Trustees of Dartmouth College, priority 2020, published 2023).

Tests used:
Human-Dab2-DH = target: T1, Human-Dab2-DH (Homo sapiens, UniProt P98082); experiment: Dab2 FP competition assay via HTS; assay type: binding; details: read-out: Inhibitory activity Dab2 IC50
T1 construct: fused on or other part: N-terminal 10xHis tag with a 3C protease site, cleaved off unless otherwise indicated
T1 sequence (P98082 33-178 limits assumed): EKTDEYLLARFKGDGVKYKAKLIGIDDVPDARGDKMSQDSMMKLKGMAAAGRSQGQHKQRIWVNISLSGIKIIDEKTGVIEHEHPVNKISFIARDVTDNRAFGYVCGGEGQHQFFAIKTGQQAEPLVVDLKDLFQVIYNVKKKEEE
Method: (§1) CALP and/or Dab2 inhibition assays were performed in biochemical “mix-and-measure” format in order to evaluate the effects on activation and inhibition of CALP and/or Dab2 by the compounds of the disclosure. Brief assay procedure is provided below. Unless otherwise specified, all of the compounds were obtained from commercial sources.
Dab-2 inhibitors were also identified by FP competition assays via HTS. Human-Dab2-DH, residues 31-191 (Uniprot: P98082), and trDab2-DH (residues 33-178) was subcloned into the pET16b vector via PCR utilizing the restriction enzyme sites of Xhol and BamHI. The construct was designed with a 3C protease cleavage site directly upstream and in-frame with the protein coding sequence. DNA was sequence verified. (0.1 mM) IPTG was used to induce protein expression in E. coli BL21(DE3)RIL cells, after reaching an O.D. of […]. […] Followed by 3C cleavage of the 10×His tag (unless otherwise indicated), and a second nickel affinity column to remove the 3C protease and excess tag. Dab2-DH was dialyzed into FP storage buffer (25 mM Tris pH 8.0, 150 mM NaCl, 0.1 mM TCEP, and 0.02% sodium azide). Fluorescent reporter peptides, TIVR*STA02 (TMR*-[…]) and TMR*STA03 (TMR*-[…]), were purchased commercially with the following sequence where TMR* denotes a N-terminal tetramethylrhodamine group coupled via an aminohexanoic acid linker. An unlabled positive control peptide STA02 ([…]) was also purchased commercially. Inhibitors of Dab2-DH were identified from a variety of sources with various protocols outlined below.
For screens conducted at the Novartis Institutes for BioMedical Research FAST Lab, single-dose HTS assays were performed with libraries comprising ˜52,000 compounds at 20 μM doses. Experiments were conducted as described for screens at the University of Pittsburgh Lab and Drug Discovery Institute, except that Dab2-DH, not trDab2-DH, was used as the protein source.
For screens conducted at the Broad Institute, compound transfers were done using a 384-well pin tool equipped with 100 nL hydrophobic surface coated pins. 100 nL of DMSO (negative control), STA02 (positive control), or library compounds were dispensed into 20 μL of protein (200 nM) and reporter (F*-STA02, 30 nM) mixture with 0.1 mg/ml mouse IgG and 0.5 mM Thesit. Final concentrations in the mixture were DMSO ([…]), STA02 (20 μM), and compounds (18 μM). Plates were incubated for 35-45 minutes before measuring polarization. Compounds were tested in duplicates on two separate plates. Positive and negative controls were included in each individual plate.
For experiments conducted at the University of Pittsburgh Lab and Drug Discovery Institute, single-dose HTS assays were performed with a library containing ˜220,000 compounds. On the day of screening, a master mix of equal parts trDab2-DH (900 nM) and TMP-STA03 (90 nM) was prepared. Compound plates containing assay ready 2 μL aliquots of a 1 mM stock solution in DMSO were thawed, reconstituted in FP buffer to a concentration of 30 μM in 3% DMSO, and five μL transferred to low volume assay plates using a Perkin Elmer MDT. Ten μL of master mix were added by a Microflo bulk liquid dispenser (Biotek, Winooski, VT) and processed as described in the general protocol above. Each plate contained 32 wells of positive (Dab2-DH+probe+DMSO) and negative (Dab2-DH+probe +10 μM STA03) controls. Plates were read at 1.5-h and 4-h on the Envision multilabel reader.

CAL PDZ [1] = target: T2, CAL PDZ (Homo sapiens, UniProt Q9HD26); experiment: CALP fluorescence polarization (FP) competition assay, HTS format with dose-response validation; assay type: binding; design: Inhibitory activity CALP at 100 μM: unit not given here; details: for IC50: read-out: Inhibitory activity CALP IC50
T2 construct: Recombinant CAL PDZ was expressed and purified in E. coli as previously described; made in house; host or cells: E. coli
Method: as §1
CALP inhibitors were identified by fluorescence polarization (FP) competition assays in high-throughput screening (HTS) format. Recombinant CAL PDZ was expressed and purified in E. coli as previously described (Amacher et al., Acta Cyst. (2011) F67, 600-603), and dialyzed into FP storage buffer (25 mM Tris pH 8.5, 150 mM NaCl, 0.1 mM TCEP, and 0.02% sodium azide). A fluorescent reporter peptide, NPG32, was purchased commercially with the following sequence: F*-[…] (F* denotes a N-terminal fluorescein group coupled via an aminohexanoic acid linker). Initial single-dose HTS was performed with libraries comprising ˜52,000 compounds (FAST Lab—Novartis Institutes for BioMedical Research). First, 25 nL of 5 mM small-molecule was transferred to 1536-well Grenier plates. 3 μL of 3.708 μM CALP in FP buffer (FP storage buffer supplemented with […]) was added, and plates were incubated for 10 min. Next, 3 μL of 60 nM NPG32 (in FP buffer) was added. Final reaction volumes were 6 μL and contained 1.854 μM CALP, 30 nM NPG32, and 20.83 μM small-molecule. […] Plates were incubated for 30 minutes at room temperature and anisotropy was measured (480 nm excitation wavelength and 535 nm emission wavelength). […] Compounds were validated in triplicate using 8-point dilution series in half-log increments with two orthogonal assays: FRET and TMR-based FP assay. For the FRET assay, a cerulean-CALP fusion protein (Cer-CALP) was expressed and purified as previously described (Zhao et al., 2018). A fluorescent reporter peptide, PRC34, was purchased commercially with the following sequence: TMR*-[…] (TMR* denotes a N-terminal tetramethylrhodamine group coupled via an aminohexanoic acid linker). First, 40 nL of compound was transferred to the plates. 5 μL of 16.632 μM Cer-CALP was added, and plates were incubated for 30 min. Next, 5 μL of 16.632 μM PRC34 was added, and plates were incubated for 30 min. Final reaction volumes were 10 μL and contained 8.316 μM CALP, 8.316 μM […], and variable concentrations of small-molecule. Negative controls contained equivalent amounts of DMSO (0.4%), while positive controls contained 100 μM NPG30 (sequence: […]). Plates were incubated for 30 min, and emission at 475 nm and 575 nm was measured following excitation at 430 nm. TMR FP assays were conducted as described for the FITC-based assay with the following exceptions: TMR was used as the reporter peptide, the final CALP concentration was 11.952 μM, and the positive control used was 100 μM NPG30.

CAL PDZ [2] = target: T2, CAL PDZ; experiment: FP assay of peptide binding by CAL PDZ pre-labeled with compound (apparent KD)
Source text: Next, to probe the biochemical effect example 8 exerts on CAL PDZ-peptide binding, CAL PDZ was pre-labeled with example 8 and performed fluorescence polarization (FP) assays to determine apparent KD values for both unlabeled and labeled CAL PDZ.

CAL PDZC319A = target: T3, CAL PDZC319A (Homo sapiens, UniProt Q9HD26, C327A); experiment: MALDI-TOF detection of adduct on point mutant CAL PDZ C319A; assay type: binding; details: only cysteine mutated to alanine
T3 construct: point mutant CAL PDZC319A (where the only cysteine residue is mutated to alanine)
Method: (§2) Following incubation of 50 μM protein with 75 μM of example 8, the molecular weight of the samples was determined by MALDI (unlabeled CALP molecular weight: 9464±15 Da; labeled CALP molecular weight: 9623±9 Da).

wild-type CFTR = experiment: Cell-surface expression of wild-type CFTR in WT-CFBE cells; assay type: cell-based; details: 1 μM and 5 μM, no correctors or potentiators
Method: The effect of example 8 on cell-surface expression of wild-type CFTR was also tested in the absence of correctors or potentiators. Two doses (1 μM and 5 μM) of example 8 were applied to wild-type cystic fibrosis bronchial epithelial (WT-CFBE) cells and the abundance of WT-CFTR cells in the plasma membrane was quantified.

CAL PDZ [3] = target: T2, CAL PDZ; experiment: MALDI-TOF detection of covalent modification of CAL PDZ; assay type: binding
Method: as §2

CALP = target: T4, CALP (Homo sapiens, UniProt Q9HD26); experiment: Dose-dependent CALP inhibition by FP competition assay, large-volume format; assay type: binding; details: one experimental replicate
T4 construct: Recombinant CAL PDZ was expressed and purified in E. coli as previously described; made in house; host or cells: E. coli
Method: The following compounds of Table 2 were obtained from commercial sources, and evaluated in fluorescence polarization (FP) competition assay.
Specifically, dose-dependent CALP inhibition of compounds of examples 36-41 was assessed by FP competition assays. Experiments were conducted similarly to HTS assays described above but in large-volume format. Briefly, CALP was expressed and purified as previously described (Amacher et al., 2011). A fluorescently labeled peptide, NPG32, was commercially obtained (sequence: F*-[…] where F* denotes a N-terminal fluorescein group coupled via an aminohexanoic acid linker). CALP was dialyzed into FP storage buffer (25 mM Tris pH 8.5, 150 mM NaCl, 0.1 mM TCEP, and 0.02% sodium azide). CALP was diluted into FP buffer (FP storage buffer supplemented with 0.1 mg/mL IgG and 30 μM thesit) containing 31.58 nM NPG32. The protein/reporter solution was aliquoted into 384-well plates with each well containing 19 μL of the mixture. Twelve-point titrations (2-fold serial dilutions) of the test compounds were prepared in 25% DMSO. To each well, 1 μL of compound was added. […] Plates were incubated at room temperature for 30 min before anisotropy was measured. […] Except for Examples 37-38, the reported potency for all compounds was calculated by averaging three experimental replicates.

Row | Structure (SMILES) | IC50 (Human-Dab2-DH) | Inhibitory activity CALP at 100 μM (CAL PDZ [1]) | IC50 (CAL PDZ [1]) | further results
1 | CC1COC2C3=C(C(=O)C=CC3=O)C3OC(=O)C4CCC5C1CCC25C43 (stereo not drawn) [Example 2, 6-methyl-2a,2a^1,3,4,4a,5,6,7,8a,12b-decahydro-2H-4a^1,5-ethanofuro[4′,3′,2′:4,10]anthra[9,1-bc]oxepine-2,9,12-trione] | 0.22 µM | −67.12 | 1.3 µM | –
2 | O=c1[nH]c2ccc(S(=O)(=O)Nc3ccc(O)c4ccccc34)cc2[nH]1 [Example 8, N-(4-hydroxynaphthalen-1-yl)-2-oxo-2,3-dihydro-1H-benzo[d]imidazole-5-sulfonamide] | – | −72.16 | 4.57 µM | Attenuation in peptide binding vs unlabeled CAL PDZ (CAL PDZ [2]): ~4 fold; Adduct on CAL PDZ C319A (CAL PDZC319A): no adduct is detected; Surface levels of WT-CFTR (wild-type CFTR): reduce surface levels of WT-CFTR; Adduct size / mass shift observed on CAL PDZ (CAL PDZ [3]): ~160 Da; Covalent modification of CAL PDZ (CAL PDZ [3]): covalently modify CAL PDZ
3 | Oc1ccc(N2CCN(c3ncccn3)CC2)cc1 [Example 5, 4-(4-(pyrimidin-2-yl)piperazin-1-yl)phenol] | 20.6 µM | −46.33 | 40.5 µM | –
4 | Cc1c(O)c(O)c(O)c(C=O)c1C=O [Example 4, 3,4,5-trihydroxy-6-methylphthalaldehyde] | 3.42 µM | −94.09 | 10.2 µM | –
5 | O=c1[nH]c2ccc(S(=O)(=O)Nc3cccc4ccccc34)cc2[nH]1 [Example 37, N-(naphthalen-1-yl)-2-oxo-2,3-dihydro-1H-benzo[d]imidazole-5-sulfonamide] | – | – | – | CALP binding in FP competition (CALP): absence of binding
6 | O=C1c2c(O)c(Cl)cc3c2[C@@]2(Oc4cc(Cl)c(O)c5c4[C@]3(O2)[C@@H]2O[C@@H]2C5=O)[C@@H]2O[C@H]12 [Example 3, (1aR,1bS,5aS,6aR,6bS,11aS)-3,9-dichloro-4,10-dihydroxy-1a,5a,6a,11a-tetrahydro-5H,11H-1b,6b-epoxyoxireno[2′,3′:2,3]naphtho[1,8-bc]oxireno[2′,3′:2,3]naphtho[1,8-ef]oxepine-5,11-dione] | 0.26 µM | −80.85 | 25.3 µM | –
7 | O=c1[nH]c2ccc(S(=O)(=O)Nc3ccc(O)cc3)cc2[nH]1 [Example 38, N-(4-hydroxyphenyl)-2-oxo-2,3-dihydro-1H-benzo[d]imidazole-5-sulfonamide] | – | – | – | CALP binding in FP competition (CALP): absence of binding
8 | O=C(O[C@@H]1Cc2c(O)cc(O)cc2O[C@@H]1c1cc(=O)c(O)c2c(O)c(O)cc([C@H]3Oc4cc(O)cc(O)c4C[C@H]3O)c2c1)c1cc(O)c(O)c(O)c1 [Example 1, (2R,3R)-5,7-dihydroxy-2-(3,4,5-trihydroxy-6-oxo-1-((2R,3R)-3,5,7-trihydroxychroman-2-yl)-6H-benzo[7]annulen-8-yl)chroman-3-yl 3,4,5-trihydroxybenzoate] | 2.45 µM | −65.53 | 11.3 µM | –
